Drawing on patent publication US11116725B2, “Nanoparticles carrying antibiotics” (UNIVERSITY OF SOUTH FLORIDA, priority 2017, dated 2021), this text covers MIC and solubility in dichloromethane for two compounds.

≈ marks a conversion by molar mass, not a printed value.

For one data set, the system named is Escherichia coli (K12). Nature of the data set: 96-well plate broth assay, minimum inhibitory concentration (MIC). Format: cell-based. Conditions: triplicate, 37° C., 16-20 hours, concentration as N-acryloylciprofloxacin, read-out: MIC vs E. coli (K12). Here is the method:
(§1) Each assay was done in triplicate.
(§2) The original stock emulsion was diluted using the Trypticase Soy Broth solution to an initial concentration of 1.28 mg/ml of the N-acryloylciprofloxacin, then serial diluted with TSB to half the concentration each time. A volume of 10 μl of each emulsion dilution was added to a well in series, resulting in a final concentration run of 64 μg/ml to 0.012 μg/ml. The MIC was done in triplicates for each bacterium, with ciprofloxacin hydrochloride being used as a positive control and a blank of broth medium was used as a negative control.
(§3) Bacteria were grown overnight at 37° C. on an agar plate composed of BBL TSA II Trypticase Soy Agar (TSA) and BBL Trypticase Soy Broth (TSB) in a 1:2 ratio at 4.4% concentration. A broth solution of 2.4% TSB was inoculated using the bacteria from the agar plates, and incubated at 37° C. to reach a 0.5 McFarland standard. The bacteria were then further diluted by a factor of 1000 using a broth solution of 2.4% TSB, and 190 μl of the diluted bacterial solution was transferred by micropipette into each well.

For data set [1], the system named is Staphylococcus aureus (ATCC 25923). The data set is described as above. Format: cell-based. Conditions: ATCC25923, triplicate, 37° C., 16-20 hours, concentration as N-acryloylciprofloxacin, read-out: MIC vs S. aureus (ATCC 25923). Here is the method: as §1, §2, §3
Data set [2] can be described thus: Solubility in organic solvents. Format: physicochemical.
Protocol: This method was attempted using methanol, ethanol, ethyl acetate, and dichloromethane. […] However, there was a critical issue that resulted with the polymerization procedure. Typically, organics were stirred at 75° C., then the surfactant and water were added. This would cause the dichloromethane to rapidly evaporate.

As usually defined, the MIC is the lowest concentration that inhibits growth of the organism. With `O=C(O)c1cn(C2CC2)c2cc(N3CCNCC3)c(F)cc2c1=O` [Control Ciprofloxacin, ciprofloxacin], the MIC in the data set with Escherichia coli (K12) came to 0.012 µg/mL (≈ 0.0362 µM); in data set [1], 0.5 µg/mL (≈ 1.51 µM).

Take `C=CC(=O)N1CCN(c2cc3c(cc2F)c(=O)c(C(=O)O)cn3C2CC2)CC1` [N-acryloylciprofloxacin]: the solubility in dichloromethane result in data set [2] was “Up to 500 mg/ml”.
